# Results from patent US20230111672A1, “COMPOSITIONS AND METHODS FOR PRODUCTION OF RECOMBINANT ADENO-ASSOCIATED VIRUS” (The Regents of the University of California, priority 2020, published 2023).
# Key:
# Assay type in all cases: cell-based, human
# [1] = test system: HEK 293T cells; experiment: Cell cycle arrest by thymidine treatment, flow cytometry with DAPI or EdU incorporation; details: 4 mM thymidine, 24 hrs post treatment
# Description: HEK 293T cells were treated with thymidine and analyzed using flow cytometry with DAPI (4′,6-diamidino-2-phenylindole) or EdU (5-ethynyl-2′-deoxyuridine) incorporation at 24 hrs post treatment.
# FIG. 1A-1B. Verification of cell cycle arrest by thymidine treatment. HEK293T cells were split into 10 cm′ cell culture dishes at 3.0e6 cells/plate. Thymidine stock was prepared with molecular biology grade distilled water at a concentration of 200 mM. The final concentration of thymidine in the culture medium was 4 mM. Two hrs before harvest, cells were incubated with EdU and were harvested for flow cytometry. DAPI staining and EdU assay were performed in accordance with the manufacturer's protocol.
# [2] = test system: HEK293T cells; experiment: Total cell count prior to harvesting the cell pellet, rAAV packaging cultures; details: counted prior to harvest at 72 hrs post transfection
# Description: (§1) The effect of thymidine treatment for rAAV packaging was assessed with the following description. rAAV manufacturing in HEK293T cells was achieved by transfecting cells with the transgene (ss-CAG-eGFP), the adenoviral helper plasmid pHelper, and rAAV2(Rep/Cap) helper plasmid in accordance with the standard protocol of PEI (polyethyleneimine) transfection (Ojala et al. 2018). Thymidine was added onto media without media change at 24 or 48 hrs post transfection and then cell pellets were harvested at 72 hrs post transfection (FIG. 2).
# (§2) The number of total cells was counted for the evaluation of cell growth prior to harvesting the cell pellet (FIG. 3A). […] Next, cell lysate samples were incubated with Benzonase as well as DNase to remove residual plasmid, and rAAV titer with or without thymidine treatment was determined by quantitative polymerase chain reaction (qPCR) with specific primers for the transgene, eGFP (FIG. 3B). rAAV titer was then normalized to total cell count to compare viral titers in vg/cell (viral genomes/cell) (FIG. 3C).
# FIG. 3A-3C. rAAV titer at 72 h with thymidine treatment. HEK293T cells were split into 10 cm′ cell culture dishes at 3.0×10^6 cells/plate and transfected with the plasmids for rAAV packaging. Cell pellets at 72 hrs post transfection were lysed by freezing and thawing and then incubated with Benzonase, followed by DNase. […]
# [3] = test system: HEK293T cells; experiment: rAAV titer by qPCR at 72 hrs post transfection, rAAV packaging in HEK293T cells
# Description: as §1, §2
# FIG. 3A-3C. rAAV titer at 72 h with thymidine treatment. HEK293T cells were split into 10 cm′ cell culture dishes at 3.0×10^6 cells/plate and transfected with the plasmids for rAAV packaging. Cell pellets at 72 hrs post transfection were lysed by freezing and thawing and then incubated with Benzonase, followed by DNase. Subsequent Proteinase K digestion released AAV genome ssDNA from the AAV vector, which were subjected into qPCR for measuring rAAV genome copy number. Error bars, mean±SD. *P<0.05, (All statistics are the result of a student's two tailed t-test with paired variance).
# [4] = test system: HEK293 cells; experiment: rAAV titer by qPCR at 96 hrs post transfection, rAAV packaging in HEK293 cells; details: HEK293, thymidine added 24 hrs post transfection, harvest at 96 hrs
# Description: To assess the generality of the result, HEK293 cells were tested, using a different packaging method than that used for HEK293T cells. HEK293 cells were seeded at high concentration and incubated for 72 hrs to reach 100% confluency and then transfected with plasmids. Thymidine was added 24 hrs post transfection, and pellets were harvested at 96 hrs post transfection (FIG. 4).
# FIG. 5. HEK293 Cells were seeded at 1.0×10^5 cell/cm′ into 10 cm′ cell culture dish and transfected with the plasmids for rAAV packaging. Thymidine was treated at 24 hrs post transfection and cell pellets were harvested at 96 hrs post transfection. rAAV titer was measured by qPCR in the same method of FIG. 3. Error bars, mean±SD.
# [5] = test system: HEK293T cells; experiment: rAAV titer following transfection with and without pHelper; details: thymidine added at 24 hrs post transfection, harvest at 72 hrs
# Text: Plasmids containing adenoviral genes that promote AAV replication and vector production, such as pHelper, have previously been essential for rAAV packaging. That is, AAV requires co-infection of helper virus or introduction of a DNA-damaging agent to complete life cycle (Yakobson, Koch, and Winocour 1987; Yalklnoglu et al. 1988), functions that in rAAV manufacturing are typically replaced by transfection with a plasmid such as pHelper. The present disclosure provides the use of thymidine as a replacement for pHelper. The positive control cells were transfected with the three plasmids (AAV vector, AAV helper, pHelper) while the negative control cells were transfected without pHelper. In some samples, thymidine was added at 24 hrs post transfection (FIG. 6).
# FIG. 6. HEK293T cells were transfected with plasmids in accordance with the indication and then thymidine was added at 24 hrs post transfection. All cells were harvested at 72 hrs post transfection and rAAV titer were determined. Error bars, mean±SD.
smiles,measurement,setting,value
Cc1cn([C@H]2C[C@H](O)[C@@H](CO)O2)c(=O)[nH]c1=O [thymidine],EdU incorporation,[1]; EdU 2 hrs before harvest,no incorporation has occurred
same,"Cell cycle phase of cell population, total DNA stained by DAPI",[1]; flow cytometry,predominantly in the S-phase section
same,Total cell count vs control group,[2],lower cell count than the control group
same,"rAAV titer in vg/ml, fold higher than control","[3]; thymidine treatment 24-72h post transfection, qPCR",2.77 fold
same,"rAAV titer, fold higher than that on control cells","[3]; thymidine treatment 24-72h post transfection, qPCR, basis not printed (second value after vg/ml)",5.38 fold
same,"rAAV titer in vg/ml, fold higher than control","[3]; thymidine treatment 48-72h post transfection, qPCR",2.19 fold
same,"rAAV titer in vg/cell, fold higher than control","[3]; thymidine treatment 48-72h post transfection, qPCR normalized to total cell count",3.52 fold
same,"rAAV titer in vg/ml, fold higher than control cells",[4],1.75 fold
same,rAAV packaging in the absence of pHelper,[5],rAAV was packaged in the absence of pHelper only when the thymidine was added
